Key:
[1] = biological target: glutathione reductase (GRd) from baker's yeast (Saccharomyces cerevisiae, UniProt P41921); assay: Covalent modification of the model enzyme GRd, anti-biotin immunoblot; type: binding; conditions: 10 µM NB-DCVCS, 3 h, 37°C, 0.5 mg/mL protein
[2] = Stability in isolated rat whole blood; type: in vitro ADME, male Sprague-Dawley rat; conditions: 50 µM, 37°C
[3] = biological target: T1, porcine heart mitochondrial malate dehydrogenase (MDH) (Sus scrofa, UniProt P00346); assay: Covalent modification of the model enzyme MDH, anti-biotin immunoblot; type: binding; conditions: 10 µM NB-DCVCS, 3 h, 37°C, 0.5 mg/mL protein
T1 sequence (P00346 25-338): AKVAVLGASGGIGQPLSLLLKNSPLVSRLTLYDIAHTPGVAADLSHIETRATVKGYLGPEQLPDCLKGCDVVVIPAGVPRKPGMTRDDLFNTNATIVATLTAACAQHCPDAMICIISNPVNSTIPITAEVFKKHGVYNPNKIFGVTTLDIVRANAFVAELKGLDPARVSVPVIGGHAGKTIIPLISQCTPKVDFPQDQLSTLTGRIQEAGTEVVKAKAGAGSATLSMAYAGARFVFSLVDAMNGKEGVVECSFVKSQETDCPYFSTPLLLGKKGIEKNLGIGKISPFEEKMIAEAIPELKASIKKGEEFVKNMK

[4] = Stability in phosphate buffer pH 7.4; type: physicochemical
[5] = Stability under acidic conditions; type: physicochemical; conditions: 0.2 M HCl/KCl buffer pH 2, several hours at 37°C (data not shown)
[6] = Stability in isolated rat plasma; type: in vitro ADME, male Sprague-Dawley rat; conditions: 50 µM, 37°C
[7] = test system: rat kidney cytosol proteins; assay: Binding of NB-DCVCS to kidney cytosolic proteins, anti-biotin immunoblot; parameters: species or system male Sprague Dawley rat; conditions: 6 µg/µL cytosol, 3 h, 37°C
[8] = Half-life in the presence of GSH; type: physicochemical; conditions: 0.31 mM compound, 1.02 mM GSH (3:10 molar ratio), phosphate buffer pH 7.4, 37°C
[9] = test system: GRd; conditions: rat renal proximal tubule cells treated with DCVC; cited from earlier work
[10] = test system: MDH; conditions: rat liver mitochondria in the presence of DCVC; cited from earlier work

glutathione reductase (GRd) from baker's yeast, sequence (P41921 whole entry): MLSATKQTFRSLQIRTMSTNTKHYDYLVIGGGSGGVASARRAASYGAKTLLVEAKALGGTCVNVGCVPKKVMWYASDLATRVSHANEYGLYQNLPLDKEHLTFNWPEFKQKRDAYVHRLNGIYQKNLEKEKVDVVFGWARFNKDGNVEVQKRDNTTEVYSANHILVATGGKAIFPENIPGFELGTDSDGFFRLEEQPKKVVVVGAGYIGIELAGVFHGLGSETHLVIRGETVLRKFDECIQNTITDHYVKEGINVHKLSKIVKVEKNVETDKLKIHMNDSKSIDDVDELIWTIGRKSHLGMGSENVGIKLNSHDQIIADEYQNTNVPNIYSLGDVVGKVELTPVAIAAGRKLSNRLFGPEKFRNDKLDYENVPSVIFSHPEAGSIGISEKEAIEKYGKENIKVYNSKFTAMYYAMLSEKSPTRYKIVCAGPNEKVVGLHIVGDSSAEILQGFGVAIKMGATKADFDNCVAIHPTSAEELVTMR

Structure (SMILES): O=C(CCCC[C@@H]1SC[C@@H]2NC(=O)N[C@@H]21)N[C@@H](C[S+]([O-])C(Cl)=CCl)C(=O)O (stereo partly shown) [NB-DCVCS]
- modification of glutathione reductase (immunoblot) [1]: extensively modified
- DCVCS formation from NB-DCVCS (amide bond cleavage) in whole blood [2]: No DCVCS formation was observed
- half-life in whole blood [2]: 68.5 min
- detection in whole blood after 150 min ([2]; after 150 min): not detectable
- modification of malate dehydrogenase (immunoblot) [3]: extensively modified
- time stable in phosphate buffer ([4]; phosphate buffer, 37°C): greater than 120 min
- stability in phosphate buffer pH 7.4 ([4]; several hours at 37°C (data not shown)): stable
- stability under acidic conditions [5]: stable
- DCVCS formation from NB-DCVCS (amide bond cleavage) in plasma [6]: No DCVCS formation was observed
- half-life in plasma [6]: 40 min
- detection in plasma after 150 min ([6]; after 150 min): not detectable
- immunoblot signal of modified kidney cytosol proteins ([7]; 312.5 nM to 5 µM NB-DCVCS): concentration-dependent increases in signal and the number of bands
- NB-DCVCS concentration at which modified proteins were detected [7]: ≥ 625 nM
- half-life in the presence of GSH [8]: 39.6 min

Structure (SMILES): N[C@@H](CSC(Cl)=CCl)C(=O)O [DCVC]
- GRd activity [9]: inhibited
- MDH activity [10]: inhibited
